For 1 compound, Activity results are on record in ChEMBL document CHEMBL4304811, “Development of a Water-Soluble Indolylmaleimide Derivative IM-93 Showing Dual Inhibition of Ferroptosis and NETosis” (ACS Med Chem Lett, 2019).

The subject of assay [1] is Tyrosine-protein kinase ABL1 (Homo sapiens), P00519 [H396P]. The experiment in a line: Binding affinity to human phosphorylated ABL1 H396P mutant (S229 to K512 residues) expressed in mammalian expression system assessed as residual binding level at 10 uM by Kinomescan method relative to control.
For assay [2], the target named is Tyrosine-protein kinase ABL2 (Homo sapiens) (UniProt P42684). Put plainly: Binding affinity to wild-type human ABL2 (A248 to G542 residues) expressed in bacterial expression system assessed as residual binding level at 10 uM by Kinomescan method relative to control.
The target in assay [3] is Bone morphogenetic protein receptor type-2 (Homo sapiens) (UniProt Q13873). Put plainly: Binding affinity to wild-type human partial length BMPR2 (R179 to Q526 residues) expressed in mammalian expression system assessed as residual binding level at 10 uM by Kinomescan method relative to control.
Assay [4] addresses Tyrosine-protein kinase BTK (Homo sapiens) (UniProt Q06187). Put plainly: Binding affinity to wild-type human full length BTK (M1 to S659 residues) expressed in mammalian expression system assessed as residual binding level at 10 uM by Kinomescan method relative to control.
The target of assay [5] is Dual specificity protein kinase CLK1 (Homo sapiens) (UniProt P49759). Put plainly: Binding affinity to wild-type human full length CLK1 (M1 to I484 residues) expressed in bacterial expression system assessed as residual binding level at 10 uM by Kinomescan method relative to control.
For assay [6], the target named is Dual specificity protein kinase CLK4 (Homo sapiens) (UniProt Q9HAZ1). The experiment in a line: Binding affinity to wild-type human partial length CLK4 (R135 to K481 residues) expressed in bacterial expression system assessed as residual binding level at 10 uM by Kinomescan method relative to control.
The target of assay [7] is Epidermal growth factor receptor (Homo sapiens) (UniProt P00533). Put plainly: Binding affinity to wild-type human partial length EGFR (R669 to V1011 residues) expressed in bacterial expression system assessed as residual binding level at 10 uM by Kinomescan method relative to control.
Assay [8] relates to Epidermal growth factor receptor (Homo sapiens), P00533 [G719S]. Put plainly: Binding affinity to human partial length EGFR G719S mutant (R669 to V1011 residues) expressed in bacterial expression system assessed as residual binding level at 10 uM by Kinomescan method relative to control.
In assay [9] the test system is Epidermal growth factor receptor (Homo sapiens), P00533 [UNDEFINED MUTATION]. Put plainly: Binding affinity to human partial length EGFR L747-E749del/A750P mutant expressed in bacterial expression system assessed as residual binding level at 10 uM by Kinomescan method relative to control.
The subject of assay [10] is Epidermal growth factor receptor (Homo sapiens), P00533 [L858R,T790M]. Put plainly: Binding affinity to human partial length EGFR L858R/T790M double mutant (R669 to V1011 residues) expressed in mammalian expression system assessed as residual binding level at 10 uM by Kinomescan method relative to control.
Assay [11] has as its target Ephrin type-A receptor 4 (Homo sapiens) (UniProt P54764). Put plainly: Binding affinity to wild-type human partial length EPHA4 (T601 to R897 residues) expressed in bacterial expression system assessed as residual binding level at 10 uM by Kinomescan method relative to control.
Assay [12] addresses Homeodomain-interacting protein kinase 2 (Homo sapiens) (UniProt Q9H2X6). The experiment in a line: Binding affinity to wild-type human partial length HIPK2 (M153 to S564 residues) expressed in mammalian expression system assessed as residual binding level at 10 uM by Kinomescan method relative to control.
Assay [13] deals with Insulin receptor-related protein (Homo sapiens) (UniProt P14616). Put plainly: Binding affinity to wild-type human partial length INSRR (R950 to E1278 residues) expressed in bacterial expression system assessed as residual binding level at 10 uM by Kinomescan method relative to control.
Chain of Insulin receptor-related protein (Homo sapiens) (P14616 27-742 limits assumed): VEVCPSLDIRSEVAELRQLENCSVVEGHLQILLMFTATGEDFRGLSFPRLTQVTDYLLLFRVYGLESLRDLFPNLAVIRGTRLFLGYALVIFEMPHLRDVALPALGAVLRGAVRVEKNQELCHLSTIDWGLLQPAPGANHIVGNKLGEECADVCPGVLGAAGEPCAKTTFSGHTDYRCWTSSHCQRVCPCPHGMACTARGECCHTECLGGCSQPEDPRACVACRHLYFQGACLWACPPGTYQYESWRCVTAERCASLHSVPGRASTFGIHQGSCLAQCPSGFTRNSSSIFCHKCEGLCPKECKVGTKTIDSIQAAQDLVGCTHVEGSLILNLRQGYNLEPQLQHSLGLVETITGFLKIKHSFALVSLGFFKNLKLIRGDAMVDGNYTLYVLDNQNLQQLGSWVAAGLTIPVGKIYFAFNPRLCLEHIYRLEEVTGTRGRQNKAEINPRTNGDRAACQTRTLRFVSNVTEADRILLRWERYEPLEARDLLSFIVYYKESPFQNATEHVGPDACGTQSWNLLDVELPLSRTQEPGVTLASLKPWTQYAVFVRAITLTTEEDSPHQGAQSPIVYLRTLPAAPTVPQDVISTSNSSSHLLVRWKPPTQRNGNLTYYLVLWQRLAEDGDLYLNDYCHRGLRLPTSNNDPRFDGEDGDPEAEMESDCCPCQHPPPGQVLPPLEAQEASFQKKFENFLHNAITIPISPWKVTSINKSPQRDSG
Chain of Insulin receptor-related protein (Homo sapiens) (P14616 747-1297 limits assumed): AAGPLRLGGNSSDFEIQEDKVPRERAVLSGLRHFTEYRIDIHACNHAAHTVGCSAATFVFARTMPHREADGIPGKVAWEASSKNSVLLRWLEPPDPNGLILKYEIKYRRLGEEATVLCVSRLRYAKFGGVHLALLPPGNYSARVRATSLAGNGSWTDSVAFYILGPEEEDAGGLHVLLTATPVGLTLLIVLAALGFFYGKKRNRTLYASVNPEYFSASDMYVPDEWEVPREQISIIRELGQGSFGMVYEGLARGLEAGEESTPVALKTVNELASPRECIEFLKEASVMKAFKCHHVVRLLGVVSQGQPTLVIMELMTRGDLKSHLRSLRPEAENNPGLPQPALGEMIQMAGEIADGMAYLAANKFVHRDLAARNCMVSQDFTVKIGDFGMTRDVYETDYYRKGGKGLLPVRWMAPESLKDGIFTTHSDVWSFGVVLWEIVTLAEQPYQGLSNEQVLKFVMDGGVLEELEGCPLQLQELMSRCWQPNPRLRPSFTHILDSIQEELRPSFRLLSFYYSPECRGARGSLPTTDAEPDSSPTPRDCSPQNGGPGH
In assay [14] the test system is Mast/stem cell growth factor receptor Kit (Homo sapiens), P10721 [A829P]. Put plainly: Binding affinity to human partial length KIT A829P mutant (I571 to D952 residues) expressed in mammalian expression system assessed as residual binding level at 10 uM by Kinomescan method relative to control.
Assay [15] addresses Serine/threonine-protein kinase PRP4 homolog (Homo sapiens) (UniProt Q13523). Put plainly: Binding affinity to wild-type human partial length PRP4 (D657 to I1007 residues) expressed in bacterial expression system assessed as residual binding level at 10 uM by Kinomescan method relative to control.
Assay [16] addresses Ribosomal protein S6 kinase alpha-3 (Homo sapiens) (UniProt P51812). Put plainly: Binding affinity to wild-type human partial length N- terminal RSK2 kinase domain 1 (M1 to D394 residues) expressed in mammalian expression system assessed as residual binding level at 10 uM by Kinomescan method relative to control.
The target of assay [17] is Serine/threonine-protein kinase Sgk1 (Homo sapiens) (UniProt O00141). Put plainly: Binding affinity to wild-type human partial length SGK (I60 to L431 residues) expressed in mammalian expression system assessed as residual binding level at 10 uM by Kinomescan method relative to control.
Assay [18] concerns the target SRSF protein kinase 3 (Homo sapiens) (UniProt Q9UPE1). Put plainly: Binding affinity to wild-type human partial length SRPK3 (P41 to P567 residues) expressed in bacterial expression system assessed as residual binding level at 10 uM by Kinomescan method relative to control.
Assay [19] addresses Serine/threonine-protein kinase 16 (Homo sapiens) (UniProt O75716). Put plainly: Binding affinity to wild-type human partial length STK16 (G11 to I305 residues) expressed in bacterial expression system assessed as residual binding level at 10 uM by Kinomescan method relative to control.
Assay [20] concerns the target Mitogen-activated protein kinase kinase kinase 7 (Homo sapiens) (UniProt O43318). Put plainly: Binding affinity to wild-type human partial length TAK1 (M1 to Q303 residues) expressed in mammalian expression system assessed as residual binding level at 10 uM by Kinomescan method relative to control.
The target of assay [21] is Tyrosine-protein kinase receptor Tie-1 (Homo sapiens) (UniProt P35590). Put plainly: Binding affinity to wild-type human partial length TIE1 (T819 to A1138 residues) expressed in bacterial expression system assessed as residual binding level at 10 uM by Kinomescan method relative to control.
Chain of Tyrosine-protein kinase receptor Tie-1 (Homo sapiens) (P35590 whole entry, the tested form may be a part): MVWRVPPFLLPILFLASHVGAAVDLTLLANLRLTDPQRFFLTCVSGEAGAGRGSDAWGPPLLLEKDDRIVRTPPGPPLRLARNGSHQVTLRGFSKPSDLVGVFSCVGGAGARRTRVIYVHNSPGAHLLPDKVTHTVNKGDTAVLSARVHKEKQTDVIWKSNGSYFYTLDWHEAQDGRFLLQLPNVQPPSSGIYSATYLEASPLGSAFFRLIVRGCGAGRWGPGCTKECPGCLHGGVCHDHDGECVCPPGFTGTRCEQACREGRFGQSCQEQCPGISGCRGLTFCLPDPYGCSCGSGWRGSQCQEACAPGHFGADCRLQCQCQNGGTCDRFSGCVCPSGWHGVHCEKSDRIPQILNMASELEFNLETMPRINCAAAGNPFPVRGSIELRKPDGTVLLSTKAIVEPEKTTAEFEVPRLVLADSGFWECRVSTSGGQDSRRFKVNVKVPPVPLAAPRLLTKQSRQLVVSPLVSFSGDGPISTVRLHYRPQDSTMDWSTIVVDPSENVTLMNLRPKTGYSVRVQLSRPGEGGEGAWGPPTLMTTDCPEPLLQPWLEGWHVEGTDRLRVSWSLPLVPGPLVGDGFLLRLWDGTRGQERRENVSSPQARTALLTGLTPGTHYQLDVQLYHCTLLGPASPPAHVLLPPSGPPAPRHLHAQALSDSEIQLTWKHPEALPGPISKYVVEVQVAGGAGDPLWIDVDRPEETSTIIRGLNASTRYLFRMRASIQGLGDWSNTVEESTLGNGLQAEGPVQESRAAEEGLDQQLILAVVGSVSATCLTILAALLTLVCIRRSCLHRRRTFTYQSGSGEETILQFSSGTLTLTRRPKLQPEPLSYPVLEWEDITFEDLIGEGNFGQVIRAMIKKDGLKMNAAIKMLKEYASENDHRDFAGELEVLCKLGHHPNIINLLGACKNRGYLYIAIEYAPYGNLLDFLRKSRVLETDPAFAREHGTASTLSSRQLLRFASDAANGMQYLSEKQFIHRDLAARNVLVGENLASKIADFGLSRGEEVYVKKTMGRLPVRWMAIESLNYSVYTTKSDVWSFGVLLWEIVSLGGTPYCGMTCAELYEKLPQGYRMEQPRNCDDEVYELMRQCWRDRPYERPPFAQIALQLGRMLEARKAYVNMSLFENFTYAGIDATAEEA
Assay [22] concerns the target Activated CDC42 kinase 1 (Homo sapiens) (UniProt Q07912). The experiment in a line: Binding affinity to wild-type human partial length TNK2 (S159 to D474 residues) expressed in bacterial expression system assessed as residual binding level at 10 uM by Kinomescan method relative to control.
Assay [23] has as its target Non-receptor tyrosine-protein kinase TYK2 (Homo sapiens) (UniProt P29597). The experiment in a line: Binding affinity to wild-type human partial length TYK2 JH2 pseudokinase domain (G556 to D888 residues) expressed in mammalian expression system assessed as residual binding level at 10 uM by Kinomescan method relative to control.
Assay [24] concerns the target Serine/threonine-protein kinase 32B (Homo sapiens) (UniProt Q9NY57). Put plainly: Binding affinity to wild-type human full length YANK2 (M1 to S414 residues) expressed in bacterial expression system assessed as residual binding level at 10 uM by Kinomescan method relative to control.

SMILES strings stand for the structures.

Chain of Ephrin type-A receptor 4 (Homo sapiens) (P54764 whole entry, the tested form may be a part): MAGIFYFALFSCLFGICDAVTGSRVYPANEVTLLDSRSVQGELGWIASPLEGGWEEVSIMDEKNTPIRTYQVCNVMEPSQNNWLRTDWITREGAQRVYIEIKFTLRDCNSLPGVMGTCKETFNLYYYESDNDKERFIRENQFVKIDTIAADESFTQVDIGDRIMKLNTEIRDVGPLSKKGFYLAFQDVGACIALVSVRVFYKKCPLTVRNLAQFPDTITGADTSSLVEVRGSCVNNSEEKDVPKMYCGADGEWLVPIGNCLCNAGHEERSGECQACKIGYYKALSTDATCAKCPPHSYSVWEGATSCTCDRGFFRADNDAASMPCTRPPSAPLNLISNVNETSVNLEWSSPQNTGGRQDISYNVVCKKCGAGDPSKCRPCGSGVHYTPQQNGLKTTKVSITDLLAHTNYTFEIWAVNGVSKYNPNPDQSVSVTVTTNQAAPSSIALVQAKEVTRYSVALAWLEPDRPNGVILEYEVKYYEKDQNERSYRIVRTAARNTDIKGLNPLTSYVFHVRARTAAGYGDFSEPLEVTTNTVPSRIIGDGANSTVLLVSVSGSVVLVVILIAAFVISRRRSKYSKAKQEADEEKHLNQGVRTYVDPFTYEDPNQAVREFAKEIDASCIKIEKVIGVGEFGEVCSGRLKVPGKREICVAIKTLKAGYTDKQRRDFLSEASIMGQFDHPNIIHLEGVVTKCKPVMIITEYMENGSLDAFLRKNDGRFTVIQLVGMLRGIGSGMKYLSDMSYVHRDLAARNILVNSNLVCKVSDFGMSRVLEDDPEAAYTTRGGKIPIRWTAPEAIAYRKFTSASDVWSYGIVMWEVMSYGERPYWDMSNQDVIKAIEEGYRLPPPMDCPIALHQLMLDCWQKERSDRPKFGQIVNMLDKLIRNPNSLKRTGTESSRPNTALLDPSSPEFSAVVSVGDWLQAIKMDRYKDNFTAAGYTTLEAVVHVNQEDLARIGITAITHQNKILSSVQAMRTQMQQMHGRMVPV
Chain of Serine/threonine-protein kinase 16 (Homo sapiens) (O75716 whole entry, the tested form may be a part): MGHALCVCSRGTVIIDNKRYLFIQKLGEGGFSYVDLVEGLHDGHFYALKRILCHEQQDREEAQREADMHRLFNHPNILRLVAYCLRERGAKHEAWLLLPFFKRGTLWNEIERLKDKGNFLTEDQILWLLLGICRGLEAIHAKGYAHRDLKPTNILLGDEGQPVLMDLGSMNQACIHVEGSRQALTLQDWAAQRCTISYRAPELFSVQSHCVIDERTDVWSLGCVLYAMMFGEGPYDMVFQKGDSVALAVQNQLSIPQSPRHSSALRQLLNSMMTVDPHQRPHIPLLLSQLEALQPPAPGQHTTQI
Chain of Homeodomain-interacting protein kinase 2 (Homo sapiens) (Q9H2X6 whole entry, looked up, the tested form may be a part): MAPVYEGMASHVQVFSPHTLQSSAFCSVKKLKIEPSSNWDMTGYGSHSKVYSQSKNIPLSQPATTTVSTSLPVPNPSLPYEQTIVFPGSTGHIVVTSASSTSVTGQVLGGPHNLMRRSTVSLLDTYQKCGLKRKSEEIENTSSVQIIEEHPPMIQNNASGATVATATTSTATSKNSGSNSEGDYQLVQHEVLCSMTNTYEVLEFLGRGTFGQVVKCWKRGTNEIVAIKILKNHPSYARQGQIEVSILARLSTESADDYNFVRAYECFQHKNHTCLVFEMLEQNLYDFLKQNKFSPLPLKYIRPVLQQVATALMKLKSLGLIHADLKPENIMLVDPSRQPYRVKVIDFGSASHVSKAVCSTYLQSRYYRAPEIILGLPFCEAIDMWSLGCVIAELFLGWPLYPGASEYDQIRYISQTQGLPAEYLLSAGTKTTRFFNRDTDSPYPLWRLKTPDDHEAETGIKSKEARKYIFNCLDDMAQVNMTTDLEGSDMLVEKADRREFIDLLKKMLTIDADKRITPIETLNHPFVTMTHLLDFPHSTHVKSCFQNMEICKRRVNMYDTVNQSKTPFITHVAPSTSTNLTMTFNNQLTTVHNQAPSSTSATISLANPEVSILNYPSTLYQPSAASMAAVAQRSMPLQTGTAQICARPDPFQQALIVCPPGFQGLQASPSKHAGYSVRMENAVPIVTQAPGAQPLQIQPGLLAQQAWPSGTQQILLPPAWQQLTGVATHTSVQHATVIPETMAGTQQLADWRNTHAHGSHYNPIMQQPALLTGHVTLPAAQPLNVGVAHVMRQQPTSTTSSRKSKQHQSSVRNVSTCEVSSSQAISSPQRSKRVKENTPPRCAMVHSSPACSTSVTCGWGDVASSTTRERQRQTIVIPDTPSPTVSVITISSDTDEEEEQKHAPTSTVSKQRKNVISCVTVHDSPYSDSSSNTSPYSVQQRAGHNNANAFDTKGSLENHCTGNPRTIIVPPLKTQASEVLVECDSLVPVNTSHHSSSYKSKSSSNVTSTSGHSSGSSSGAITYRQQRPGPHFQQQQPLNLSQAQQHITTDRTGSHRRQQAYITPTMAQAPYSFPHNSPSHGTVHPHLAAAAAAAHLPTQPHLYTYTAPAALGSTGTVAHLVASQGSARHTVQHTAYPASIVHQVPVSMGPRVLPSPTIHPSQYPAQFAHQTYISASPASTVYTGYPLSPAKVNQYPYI

On to `CC(C)N1C(=O)C(NCCCN(C)C)=C(c2cn(C)c3ccccc23)C1=O.Cl`, for which the Activity in assay [1] is 93%; in [2], 98%; in assay [3] it was 100%; in assay [4], 100%; in [5] it was 98%; in assay [6], 95%. Besides, the Activity was found to be 89% in assay [7]; 100% in [8]; 88% in assay [9]; 100% in assay [10]; 100% in assay [11]; 100% in assay [12]. For the same compound, the Activity in assay [13] was found to be 95%; in assay [14], 100%; in assay [15], 86%; in [16], 92%; in [17], 95%; in assay [18], 100%. In addition, the Activity in [19] was found to be 99%; in assay [20], 78%; in [21], 92%; in assay [22], 100%; in assay [23] it was 88%; in assay [24], 99%.
